Results taken from US20240417405A1, “Substituted Spiro Derivatives” (Janssen Pharmaceutica NV, priority 2021, published 2024).

Tests used:
[1] = molecular target: T1, menin/MLL (terbium chelate-labeled menin, FITC-MBM1 peptide) (Homo sapiens, UniProt O00255, T541A); assay: Menin/MLL homogenous time-resolved fluorescence (HTRF) assay; format: binding; conditions: 30 min incubation
T1 construct: Menin (a.a 1-610-6xhis tag)
T1 sequence (O00255 with tags, fused parts or gaps T541A): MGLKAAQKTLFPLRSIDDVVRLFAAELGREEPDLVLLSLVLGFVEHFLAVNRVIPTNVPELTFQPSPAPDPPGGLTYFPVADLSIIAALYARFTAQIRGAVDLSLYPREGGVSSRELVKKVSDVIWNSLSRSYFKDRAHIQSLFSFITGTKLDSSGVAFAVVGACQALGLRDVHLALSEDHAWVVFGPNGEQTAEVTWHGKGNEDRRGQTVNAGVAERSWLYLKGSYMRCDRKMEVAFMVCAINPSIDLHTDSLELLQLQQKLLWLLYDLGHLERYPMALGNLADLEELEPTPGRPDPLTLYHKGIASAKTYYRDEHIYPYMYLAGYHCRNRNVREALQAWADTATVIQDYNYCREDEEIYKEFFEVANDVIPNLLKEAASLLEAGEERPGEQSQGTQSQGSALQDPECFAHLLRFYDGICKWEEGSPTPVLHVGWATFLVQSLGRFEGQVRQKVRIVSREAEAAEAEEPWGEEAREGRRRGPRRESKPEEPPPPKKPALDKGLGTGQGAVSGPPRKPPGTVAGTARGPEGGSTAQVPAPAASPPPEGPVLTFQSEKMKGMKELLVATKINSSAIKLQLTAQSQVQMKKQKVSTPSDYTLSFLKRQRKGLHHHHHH
Description: 1) Menin/MLL Homogenous Time-Resolved Fluorescence (HTRF) Assay
To an untreated, white 384-well microtiter plate was added 40 nL 200× test compound in DMSO and 4 μL 2× terbium chelate-labeled menin (vide infra for preparation) in assay buffer (40 mM Tris.HCl, pH 7.5, 50 mM NaCl, 1 mM DTT (dithiothreitol) and 0.05% Pluronic F-127). After incubation of test compound and terbium chelate-labeled menin for 30 min at ambient temperature, 4 μL 2× FITC-MBM1 peptide (FITC-β-alanine-SARWRFPARPGT-NH2 (SEQ ID NO: 3)) (“FITC” means fluorescein isothiocyanate) in assay buffer was added, the microtiter plate centrifuged at 1000 rpm for 1 min and the assay mixtures incubated for 15 min at ambient temperature. The relative amount of menin FITC-MBM1 complex present in an assay mixture is determined by measuring the homogenous time-resolved fluorescence (HTRF) of the terbium/FITC donor/acceptor fluorophore pair using an EnVision microplate reader (ex. 337 nm/terbium em. 490 nm/FITC em. 520 nm) at ambient temperature. The degree of fluorescence resonance energy transfer (the HTRF value) is expressed as the ratio of the fluorescence emission intensities of the FITC and terbium fluorophores (F^em 520 nm/F^em 490 nm). The final concentrations of reagents in the binding assay are 200 pM terbium chelate-labeled menin, 75 nM FITC-MBM1 peptide and 0.5% DMSO in assay buffer. Dose-response titrations of test compounds are conducted using an 11 point, four-fold serial dilution scheme, starting typically at 10 μM.
Compound potencies were determined by first calculating % inhibition at each compound concentration according to equation 1:
% inhibition=((HC−LC)−(HTRF^compound−LC))/(HC−LC))*100 (Eqn 1)
Where LC and HC are the HTRF values of the assay in the presence or absence of a saturating concentration of a compound that competes with FITC-MBM1 for binding to menin, and HTRF^compound is the measured HTRF value in the presence of the test compound. HC and LC HTRF values represent an average of at least 10 replicates per plate.
% inhibition=Bottom+(Top−Bottom)/(1+10^((logIC50−log[cmpd])*h)) (Eqn 2)
Where Bottom and Top are the lower and upper asymptotes of the dose-response curve, respectively, IC50 is the concentration of compound that yields 50% inhibition of signal and h is the Hill coefficient. IC50 values below 0.1 nM in the HTRF assay were reported as 0.1 nM in the Table below (detection limit).
Preparation of Terbium cryptate labeling of Menin: Menin (a.a 1-610-6xhis tag (“6xhis tag” disclosed as SEQ ID NO: 2), 2.3 mg/mL in 20 mM Hepes (2-[4-(2-Hydroxyethyl)-1-piperazinyl]ethane sulfonic acid), 80 mM NaCl, 5 mM DTT (Dithiothreitol), pH 7.5) was labeled with terbium cryptate as follows. 200 μg of Menin was buffer exchanged into 1× Hepes buffer. 6.67 μM Menin was incubated with 8-fold molar excess NHS (N-hydroxysuccinimide)-terbium cryptate for 40 minutes at room temperature. Half of the labeled protein was purified away from free label by running the reaction over a NAP5 column with elution buffer (0.1 M Hepes, pH 7+0.1% BSA (bovine serum albumin)). The other half was eluted with 0.1 M phosphate buffered saline (PBS), pH7. 400 μl of eluent was collected for each, aliquoted and frozen at −80° C. The final concentration of terbium-labeled Menin protein was 115 μg/mL in Hepes buffer and 85 μg/mL in PBS buffer, respectively.

[2] = test system: MOLM14 cells; assay: Proliferation assay, spheroid-like growth, MOLM14 (MLL-AF9 rearranged); format: cell-based, human; conditions: Homo sapiens, MOLM-14, 192 h, 8 days, confluence as measure of spheroid size, read-out: spheroid assay_OneTime MOLM14 IC50
Description: The anti-proliferative effect of menin/MLL protein/protein interaction inhibitor test compounds was assessed in human leukemia cell lines. The cell line MOLM14 harbors a MLL translocation and expresses the MLL fusion proteins MLL-AF9, respectively, as well as the wildtype protein from the second allele. […] KO-52 was used as a control cell line containing two MLL (KMT2A) wildtype alleles in order to exclude compounds that display general cytotoxic effects.
MOLM14 cells were cultured in RPMI-1640 (Sigma Aldrich) supplemented with 10% heat-inactivated fetal bovine serum (HyClone), 2 mM L-glutamine (Sigma Aldrich) and 50 μg/ml gentamycin (Gibco). KO-52 cell lines were propagated in alpha-MEM (Sigma Aldrich) supplemented with 20% heat-inactivated fetal bovine serum (HyClone), 2 mM L-glutamine (Sigma Aldrich) and 50 μg/ml gentamycin (Gibco).
In order to assess the anti-proliferative effects, 200 MOLM14 cells, or 300 KO-52 cells were seeded in 200 μl media per well in 96-well round bottom, ultra-low attachment plates (Costar, catalogue number 7007). Cell seeding numbers were chosen based on growth curves to ensure linear growth throughout the experiment. Test compounds were added at different concentrations and the DMSO content was normalized to 0.3%. Cells were incubated for 8 days at 37° C. and 5% CO2. Spheroid like growth was measured in real-time by live-cell imaging (IncuCyteZOOM, Essenbio, 4× objective) acquiring images at day 8. Confluence (%) as a measure of spheroid size was determined using an integrated analysis tool.
In order to determine the effect of the test compounds over time, the confluence in each well as a measure of spheroid size, was calculated. Confluence of the highest dose of a reference compound was used as baseline for the LC (Low control) and the confluence of DMSO treated cells was used as 0% cytotoxicity (High Control, HC).
Absolute IC50 values were calculated as percent change in confluence as follows:
LC=Low Control: cells treated with e.g. 1 μM of the cytotoxic agent staurosporin, or e.g. cells treated with a high concentration of an alternative reference compound
GraphPad Prism (version 7.00) was used to calculate the IC50. Dose-response equation was used for the plot of % Effect vs Log 10 compound concentration with a variable slope and fixing the maximum to 100% and the minimum to 0%.

IC50 [1]	IC50 [2]	Compound
0.2 nM	23 nM	CC(=O)N1CCCN([C@H]2C[C@@H]([C@@H](C(C)C)N3CC4(CCN(c5ncnnc5Oc5ccc(F)cc5-c5cncnc5C5CC5)C4)C3)C2)CC1 (single isomer, unassigned) [Compound 61]
0.2 nM	8 nM	CC(C)[C@H]([C@H]1C[C@@H](N2CCC3(CCO3)C2)C1)N1CC2(CCN(c3ncnnc3Oc3ccc(F)cc3-c3cncnc3C3CC3)C2)C1 (single isomer, unassigned) [Compound 212]
0.5 nM	3 nM	CC(C)[C@H]([C@H]1C[C@@H](NC2CS(=O)(=O)C2)C1)N1CC2(CCN(c3ncnnc3Oc3ccc(F)cc3-c3cncnc3C3CC3)C2)C1 (single isomer, unassigned) [Compound 235]
1.9 nM	270 nM	CC(C)[C@H]([C@H]1C[C@@H](N2CCNC(=O)C2)C1)N1CC2(CCN(c3ncnnc3Oc3ccc(F)cc3-c3cncnc3C3CC3)C2)C1 (single isomer, unassigned) [Compound 240]
2.1 nM	510 nM	CC(C)[C@H]([C@H]1C[C@H](N2CCNC(=O)C2)C1)N1CC2(CCN(c3ncnnc3Oc3ccc(F)cc3-c3cncnc3C3CC3)C2)C1 (single isomer, unassigned) [Compound 241]
1.6 nM	130 nM	CC(C)[C@@H]([C@H]1C[C@@H](N2C[C@H]3COC[C@H]3C2)C1)N1CC2(CCN(c3ncnnc3Oc3ccc(F)cc3-c3cncnc3C3CC3)C2)C1 (single isomer, unassigned) [Compound 244]
0.3 nM	180 nM	CC(C)[C@H]([C@H]1C[C@@H](N2CC3(CCCO3)C2)C1)N1CC2(CCN(c3ncnnc3Oc3ccc(F)cc3-c3cncnc3C3CC3)C2)C1 (single isomer, unassigned) [Compound 246]
0.1 nM	9 nM	CC(C)[C@H]([C@H]1C[C@@H](N2CC3(CCOC3)C2)C1)N1CC2(CCN(c3ncnnc3Oc3ccc(F)cc3-c3cncnc3C3CC3)C2)C1 (single isomer, unassigned) [Compound 247]
0.1 nM	9 nM	CC(C)[C@H]([C@H]1C[C@@H](N2CC3(CCS(=O)(=O)CC3)C2)C1)N1CC2(CCN(c3ncnnc3Oc3ccc(F)cc3-c3cncnc3C3CC3)C2)C1 (single isomer, unassigned) [Compound 249]
0.2 nM	9 nM	COC1(C)CN([C@H]2C[C@@H]([C@H](C(C)C)N3CC4(CCN(c5ncnnc5Oc5ccc(F)cc5-c5nnccc5C5CC5)C4)C3)C2)C1 (single isomer, unassigned) [Compound 263]
0.1 nM	11 nM	CC(C)[C@@H]([C@H]1C[C@@H](N2CC3(CCCO3)C2)C1)N1CC2(CCN(c3ncnnc3Oc3ccc(F)cc3-c3nnccc3C3CC3)C2)C1 (single isomer, unassigned) [Compound 265]
0.1 nM	< 2 nM	CC(C)[C@@H]([C@H]1C[C@@H](N2CC3(CCCCO3)C2)C1)N1CC2(CCN(c3ncnnc3Oc3ccc(F)cc3-c3nnccc3C3CC3)C2)C1 (single isomer, unassigned) [Compound 266]
1.3 nM	180 nM	CC(C)[C@H]([C@H]1C[C@@H](N2CC3(CCCCO3)C2)C1)N1CC2(CCN(c3ncnnc3Oc3ccc(F)cc3-c3nnccc3C3CC3)C2)C1 (single isomer, unassigned) [Compound 267]
0.1 nM	6 nM	CC(C)[C@@H]([C@H]1C[C@@H](N2CCC3(CCO3)C2)C1)N1CC2(CCN(c3ncnnc3Oc3ccc(F)cc3-c3nnccc3C3CC3)C2)C1 (single isomer, unassigned) [Compound 268]
5.6 nM	> 940 nM	CC(C)[C@H]([C@H]1C[C@@H](N2CCC3(CCO3)C2)C1)N1CC2(CCN(c3ncnnc3Oc3ccc(F)cc3-c3nnccc3C3CC3)C2)C1 (single isomer, unassigned) [Compound 269]
0.2 nM	2 nM	CC(C)[C@@H]([C@H]1C[C@@H](N2CCC3(CCCO3)C2)C1)N1CC2(CCN(c3ncnnc3Oc3ccc(F)cc3-c3nnccc3C3CC3)C2)C1 (single isomer, unassigned) [Compound 270]
0.1 nM	21 nM	CC(C)[C@@H]([C@H]1C[C@@H](NC2CC2)C1)N1CC2(CCN(c3ncnnc3Oc3ccc(F)cc3-c3nnccc3C3CC3)C2)C1 (single isomer, unassigned) [Compound 272]
0.9 nM	250 nM	CC(=O)N1CCN([C@H]2C[C@@H]([C@H](C(C)C)N3CC4(CCN(c5ncnnc5Oc5ccc(F)cc5-c5nnccc5C5CC5)C4)C3)C2)CC1 (single isomer, unassigned) [Compound 277]
0.1 nM	2 nM	CC(C)[C@@H]([C@H]1C[C@@H](N2C[C@H]3COC[C@H]3C2)C1)N1CC2(CCN(c3ncnnc3Oc3ccc(F)cc3-c3cnncc3C3CC3)C2)C1 (single isomer, unassigned) [Compound 278]
